Like-named read-outs stand apart in the source and are kept apart here.
Legend:
Type in all cases: cell-based, Staphylococcus aureus
EMRSA-17 [1] = assay: Reversal of multi-drug resistance (MIC / FIC, Alamar blue)
Description: (§1) Fixed concentration of compounds I and II and increasing concentration of antibiotics (drugs) were made in 96-well plates. 5×10^5 multidrug resistant S. aureus cells were added in each well and incubated for 20-24 hours. No test compounds and antibiotics were present in control wells Inhibition and growth were noted both visually and by using the dye Alamar blue. FIC of Antibiotic a (FICa)=MIC of Antibiotic a in combination/MIC of Antibiotic a alone FIC of Compound b (FICb)=MIC of Compound b in combination/MIC of Compound b alone
(§2) The sum of Fractional Inhibitory Concentration (FICs) index of (FICa)+(FICb)=(FICs). Fractional inhibitory concentrations were calculated by the above cited formula. (The FIC values of compounds I and II are available (FIGS. 4A and 4B). Protocol of Chung et al. (2011), with slight modifications, was followed for above discussed reversal resistance assay.

EMRSA-16 [2] = assay: as above; conditions: for MIC of antibiotic in combination: antibiotic in combination of compounds I and II
Description: as §1, §2

MRSA 252 = assay: High throughput screening assay (MABA) against MDR S. aureus; conditions: for activity in MABA (in words): summary of Table 1
Description: (§3) In growth medium (Muller Hinton broth), the pure isolated colonies were inoculated and incubated at 37° C. for 20-24 hours. After 20-24 hours, the turbidity was checked and adjusted to 0.5 McFarland standards.
(§4) For this assay, the stock solutions of 1 mg/mL concentration of compounds (I and II) were made by using DMSO. 96-Wells sterile, flat bottom micro titer plates were used with proper labeling, 20 μg/mL of both compounds were added in first wells and made two fold serial dilutions by using sterile broth. The cells suspensions (conc. 5×10^5) were then added in each wells, finally the volume was made up with broth up to 200 μL in each well. The plate was sealed and incubated at 37° C. for 20-24 hours. Experiments were carried out in triplicate manner. After incubation of 20-24 hours, Alamar Blue Dye was added (10%) to the culture volume and kept the plates on shaking incubator at 37° C. for 3 to 4 hours. Change in color was then assessed visually and qualitatively. Quantitative analysis was recorded by taking absorbance at 570 and 600 nm by a spectrophotometer.
(§5) The above mentioned protocol was followed by the method reported by Sarkar et al., (2007) with slight modifications.
(§6) Percentage reduction and inhibition of Alamar blue dye was calculated by using the following formulas:
(§7) [formula] Where, • εox=molar extinction coefficient of Alamar blue oxidized form (blue) • εred=molar extinction coefficient of Alamar blue reduced form (pink) • A=absorbance of test wells • A′=absorbance of negative control well • λ1=570 nm • λ2=600 nm
(§8) Here control wells contain only media plus Alamar Blue, while the test wells contain both Alamar Blue with the test compounds.
(§9) [formula] Where, • εox=molar extinction coefficient of Alamar blue oxidized form (blue) • A=absorbance of test wells • A°=absorbance of positive growth control well • λ1=570 nm • λ2=600 nm
(§10) Here control wells contain cells+media+Alamar Blue, while the test wells contain both Alamar Blue with the test compounds+cells (The percent inhibitions are available in Table 1).

EMRSA-17 [3] = assay: as above; conditions: for activity in MABA (in words): summary of Table 1
Description: as §3, §4, §5, §6, §7, §8, §9, §10

EMRSA-16 [4] = assay: as above; conditions: for activity in MABA (in words): summary of Table 1
Description: as §3, §4, §5, §6, §7, §8, §9, §10

Clinical Isolates = assay: as above; conditions: for activity in MABA (in words): summary of Table 1
Description: as §3, §4, §5, §6, §7, §8, §9, §10

EMRSA-16 and -17 [5] = assay: Inhibition of MDR efflux pumps, EtBr accumulation flow cytometry; conditions: combinations with antibiotics, 3 hrs; FL-2 channel
Description: Assay Protocol: Different combinations of compounds I and II with antibiotics, and antibiotic alone, were made and incubated with bacterial cells for 3 hrs. After incubation cells were stained with ethidium bromide. Both the control and treated cells were centrifuged for 3 mins at 13,000 rpm. The pallet was washed with PBS. Negative control was free from ethidium bromide (EtBr), while positive control contains (EtBr). By using FL2 channel, FACS analyses were carried out. Protocol of Kalle et al. (2009) was employed with some modifications.
Flow cytometry data acquisition: For data acquisition and analysis Cell Quest software (BD) were used. A total number of 50,000 cells were counted. EtBr fluorescence was detected through (FL-2 channel).

EMRSA-16 and -17 [6] = assay: Membrane potential and integrity, DiBAC4(3) flow cytometry; conditions: 20 μg/mL, 20-24 h; DiBAC4(3) fluorescence FL1
Description: 20 μg/mL of compounds I and II were tested against 5×10^5 multidrug resistant S. aureus cells and incubated for 20-24 hours, while cells without compounds were taken as a control. Stock solution (1 mg/mL) for the membrane potential probe DiBAC4(3) was made in absolute ethanol and stored at −20° C. 1 mL of exponentially growing S. aureus were taken from broth cultures and centrifuged at 11,000 rpm for 2 mins Supernatant was discarded and cells pallets were dissolved in 4 mL of filtered phosphate-buffered saline (PBS). Final 10 μg/mL conc. of fluorogenic substrates DiBAC4 were adjusted in 4 mL volume. The stained cell suspension was incubated at 37° C. for 30 min. Before flow cytometric analysis, cells were washed in PBS buffer by centrifugation. The above mentioned protocol was adapted from the procedures of Jepras et al. (1997) with slight modifications. Assays were performed by using Becton Dickinson FACSCaliber™ flow cytometer (USA). A total of 50,000 cells were counted by using Cell Quest software (BD) for data acquisition and analysis. DiBAC4(3) was detected as green fluorescence in the channel FL1 (Veal et al., 2000).

EMRSA-16 and -17 [7] = assay: Reactive oxygen species (O2-) production, lucigenin CL assay; conditions: 25, 50 and 100 μg/mL; lucigenin chemiluminescence
Description: Assay Protocol: 5×10^5 Cells were incubated with the different concentrations of compounds (25, 50 and 100. μg/mL), leucigenin and filtered phosphate buffer saline. For the triggering of reaction, DMSO was added to the each well at the time of RLU determination. No test compounds were added in positive control but it contained DMSO, while no test compound and DMSO were added in negative control. Chemiluminescence (CL) was determined at room temperature by luminometer. The light emission results were measured in relative light unit (RLU). Protocol of above discussed protocol was followed by the method of Albesa et al (2002) with slight modifications.

[8] = Staphylococcus aureus, EMRSA-17, substance alone, read-out: MIC
[9] = Staphylococcus aureus, 20 μg/mL, Alamar blue, 20-24 h

CCC[C@@H]1C[C@@H](C(=O)N[C@@H]([C@H]2O[C@H](SC)[C@H](O)[C@@H](O)[C@H]2O)[C@H](C)Cl)N(C)C1 [clindamycin]
MIC (EMRSA-17 [1]; [8]): 4100 µg/mL
MIC of antibiotic in combination (EMRSA-16 [2]): 32 µg/mL

penicillin
MIC (EMRSA-17 [1]; EMRSA-17, substance alone): 1024 µg/mL
MIC of antibiotic in combination (EMRSA-16 [2]): 8 µg/mL

NCC[C@H](O)C(=O)N[C@@H]1C[C@H](N)[C@@H](O[C@H]2O[C@H](CN)[C@@H](O)[C@H](O)[C@H]2O)[C@H](O)[C@H]1O[C@H]1O[C@H](CO)[C@@H](O)[C@H](N)[C@H]1O [amikacin]
MIC (EMRSA-17 [1]; Staphylococcus aureus): 256 µg/mL
MIC of antibiotic in combination (EMRSA-16 [2]): 4 µg/mL

COc1cccc(NC(=S)Nc2cccc(Cl)c2)c1 [II, N-(3-Chlorophenyl)-N-(3methoxyphenyl) thiourea]
inhibition at 20 µg/mL (MRSA 252; [9]): 14.8%
activity in MABA (in words) (EMRSA-17 [3]; 20 μg/mL): active
inhibition at 20 µg/mL (EMRSA-17 [3]; [9]): 82.6%
activity in MABA (in words) (EMRSA-16 [4]; 20 μg/mL): active
inhibition at 20 µg/mL (EMRSA-16 [4]; [9]): 50.1%
inhibition at 20 µg/mL (Clinical Isolates; [9]): 19.6%
inhibition of efflux pump (EtBr accumulation) (EMRSA-16 and -17 [5]): excellent capacity to inhibit the bacterial efflux pump mechanism
effect on membrane potential and integrity (EMRSA-16 and -17 [6]): depolarization and the disruption of cytoplasmic membrane
production of reactive oxygen species (O2-) (EMRSA-16 and -17 [7]): generation of O2^− in MDR cells were detected
MIC (EMRSA-17 [1]; [8]): 25 µg/mL
MIC (EMRSA-16 [2]; Staphylococcus aureus, substance alone): 52 µg/mL

gentamicin
MIC (EMRSA-17 [1]; EMRSA-17, substance alone): 1024 µg/mL
MIC of antibiotic in combination (EMRSA-16 [2]): 8 µg/mL

Cc1cc(NS(=O)(=O)c2ccc(N)cc2)no1 [sulfamethoxazole]
interaction of antibiotic with compounds (FIC) (EMRSA-17 [1]; EMRSA-17, with both compounds I and II): indifference effect
MIC (EMRSA-17 [1]; [8]): 2080 µg/mL

Thiocarbamide [Thiourea]
% Inhibition 20 μg/mL MRSA 252 (MRSA 252; 20 μg/mL, Alamar blue, 20-24 h): No Inhibition
activity in MABA (in words) (MRSA 252): resistant
activity in MABA (in words) (EMRSA-17 [3]; 20 μg/mL): resistant
% Inhibition 20 μg/mL EMRSA-17 (EMRSA-17 [3]; Alamar blue, 20-24 h): No Inhibition
activity in MABA (in words) (EMRSA-16 [4]; 20 μg/mL): resistant
% Inhibition 20 μg/mL EMRSA-16 (EMRSA-16 [4]; Alamar blue, 20-24 h): No Inhibition
% Inhibition 20 μg/mL Clinical Isolates (Clinical Isolates; 20 μg/mL, Alamar blue, 20-24 h): No Inhibition
activity in MABA (in words) (Clinical Isolates): resistant

neomycin
MIC (EMRSA-17 [1]; EMRSA-17, substance alone): 512 µg/mL
MIC of antibiotic in combination (EMRSA-16 [2]): 8 µg/mL

Cc1onc(-c2ccccc2)c1C(=O)N[C@@H]1C(=O)N2[C@@H]1SC(C)(C)[C@@H]2C(=O)O [oxacillin]
MIC (EMRSA-17 [1]; [8]): 2050 µg/mL
MIC of antibiotic in combination (EMRSA-16 [2]): 16 µg/mL

NC(N)=O [Urea, Carbamide, carbonyl diamide, carbonyldiamine, Diaminomethanal]
% Inhibition 20 μg/mL MRSA 252 (MRSA 252; 20 μg/mL, Alamar blue, 20-24 h): No Inhibition
activity in MABA (in words) (MRSA 252): resistant
activity in MABA (in words) (EMRSA-17 [3]; 20 μg/mL): resistant
% Inhibition 20 μg/mL EMRSA-17 (EMRSA-17 [3]; Alamar blue, 20-24 h): No Inhibition
activity in MABA (in words) (EMRSA-16 [4]; 20 μg/mL): resistant
% Inhibition 20 μg/mL EMRSA-16 (EMRSA-16 [4]; Alamar blue, 20-24 h): No Inhibition
% Inhibition 20 μg/mL Clinical Isolates (Clinical Isolates; 20 μg/mL, Alamar blue, 20-24 h): No Inhibition
activity in MABA (in words) (Clinical Isolates): resistant

O=C(O)c1cn(C2CC2)c2cc(N3CCNCC3)c(F)cc2c1=O [ciprofloxacin]
MIC of antibiotic in combination (EMRSA-16 [2]): 4 µg/mL

O=C(N[C@H](CO)[C@H](O)c1ccc([N+](=O)[O-])cc1)C(Cl)Cl [chloramphenicol]
MIC of antibiotic in combination (EMRSA-16 [2]): 16 µg/mL

Source: patent US9387186B2, “Thiourea derivatives” (priority 2014, dated 2016)
